Data: patent US9827235B2, “Pharmaceutical compositions comprising antibacterial agents” (WOCKHARDT LIMITED, priority 2013, dated 2017)
Like-named read-outs stand apart in the source and are kept apart here.

Assays:
Format in all cases: cell-based
P. aeruginosa S 513 = assay: MIC on Muller Hinton Agar (CLSI); conditions: Pseudomonas aeruginosa
Method: (§1) The antibacterial activity of combinations according to the invention was investigated against various bacterial strains. In a typical study, minimum inhibitory concentrations (MIC) were determined using Muller Hinton Agar (MHA) (BD, USA) according to Clinical and Laboratory Standards Institute (CLSI) recommendations, (Clinical and Laboratory Standards Institute (CLSI), Performance Standards for Antimicrobial Susceptibility Testing, 20th Informational Supplement, M 100-S20, Volume 30, No. 1, 2010). In short, the inocula were adjusted to deliver about 10^4 colony forming units (CFU) per spot with a multipoint inoculator (Applied Quality Services, UK). The plates were pored with doubling concentration range of the test combinations according to invention containing MHA. The plates were inoculated and were incubated at 35° C. for 18 hours.

K. pneumoniae S 48 = assay: MIC on Muller Hinton Agar (CLSI); conditions: Klebsiella pneumoniae
Method: as §1

E. coli S 330 = assay: MIC on Muller Hinton Agar (CLSI); conditions: Escherichia coli
Method: as §1

P. aeruginosa S 504 = assay: MIC on Muller Hinton Agar (CLSI); conditions: Pseudomonas aeruginosa
Method: as §1

E. coli S 35 = assay: MIC on Muller Hinton Agar (CLSI); conditions: Escherichia coli
Method: as §1

E. coli S 16 = assay: MIC on Muller Hinton Agar (CLSI); conditions: Escherichia coli
Method: as §1

P. aeruginosa Q-111 = assay: MIC on Muller Hinton Agar (CLSI); conditions: Pseudomonas aeruginosa
Method: as §1

K. pneumoniae B 77 = assay: MIC on Muller Hinton Agar (CLSI); conditions: Klebsiella pneumoniae
Method: as §1

E. coli S 30 = assay: MIC on Muller Hinton Agar (CLSI); conditions: Escherichia coli
Method: as §1

E. coli S 33 = assay: MIC on Muller Hinton Agar (CLSI); conditions: Escherichia coli
Method: as §1

K. pneumoniae S 50 = assay: MIC on Muller Hinton Agar (CLSI); conditions: Klebsiella pneumoniae
Method: as §1

K. pneumoniae M 3 = assay: MIC on Muller Hinton Agar (CLSI); conditions: Klebsiella pneumoniae
Method: as §1

K. pneumoniae NCTC 13439 = assay: MIC on Muller Hinton Agar (CLSI); conditions: Klebsiella pneumoniae
Method: as §1

E. coli M 44 = assay: MIC on Muller Hinton Agar (CLSI); conditions: Escherichia coli
Method: as §1

K. pneumoniae B 88 = assay: MIC on Muller Hinton Agar (CLSI); conditions: Klebsiella pneumoniae
Method: as §1

P. aeruginosa S 508 = assay: MIC on Muller Hinton Agar (CLSI); conditions: Pseudomonas aeruginosa
Method: as §1

[1] = tested on: P. aeruginosa H 113720186; assay: MIC on Muller Hinton Agar (CLSI); conditions: Pseudomonas aeruginosa
Method: as §1

[2] = tested on: clinical isolate of K. pneumoniae S 48 producing metallo beta-lactamases [SHV, TEM, NDM-1]; assay: Time kill study; conditions: for Bacterial count: each agent at 8 mcg/ml, initial count 6.84 log CFU/ml
Method: (§2) Typically, freshly grown cultures were diluted to the required cell density (initial starting inoculum) in Cation adjusted Muller Hinton broth medium BD, USA). The antibacterial agents at the required concentrations were added into the culture-containing medium either alone or in combination. The samples were incubated under shaking condition (120 rpm) at 37° C. Enumeration of viable bacterial count was undertaken, every 2 hour, by diluting in normal saline and plating on to the Tryptic Soya Agar plates (BD, USA). The plates were incubated for 24 hours to arrive at the viable bacterial count. […] The decrease of 1 Log CFU/ml, after administration of combination of present invention, in comparison to initial bacterial count corresponds to 90% killing of bacteria. Similarly, 2 Log CFU/ml reductions corresponds to 99% killing of bacteria and 3 Log CFU/ml reductions is equal to 99.9% killing of bacteria.

[3] = tested on: clinical isolate of K. pneumoniae B 88 producing metallo beta-lactamases [SHV, TEM, NDM-1]; assay: Time kill study; conditions: for Bacterial count: each agent at 8 mcg/ml, initial count 6.18 log CFU/ml
Method: as §2

[4] = tested on: highly resistant strains of E. coli, K. pneumonia and P. aeruginosa; assay: MIC, summary over the strain panel
Method: as §1

[5] = used alone at 8 mcg/ml, at the end of 6 hours

For CO/N=C(\C(=O)N[C@@H]1C(=O)N2C(C(=O)[O-])=C(C[N+]3(C)CCCC3)CS[C@H]12)c1csc(N)n1 [Cefepime, cefepime], the MIC (P. aeruginosa S 513; S513, agent alone, enzymes VIM-6, read-out: MIC) was greater than 32 µg/mL, the MIC (P. aeruginosa S 513; S513, with compound of Formula (I) at 8 mcg/ml, read-out: MIC (mcg/ml) of cefepime in presence of a compound of Formula (I) (8 mcg/ml)) was no more than 0.06 µg/mL and the MIC (K. pneumoniae S 48; S48, agent alone, enzymes SHV, TEM, NDM-1, read-out: MIC) was greater than 32 µg/mL. It also gave an MIC (K. pneumoniae S 48; S48, with compound of Formula (I) at 8 mcg/ml, read-out: MIC (mcg/ml) of cefepime in presence of a compound of Formula (I) (8 mcg/ml)) of no more than 0.015 µg/mL, an MIC (E. coli S 330; S330, agent alone, enzymes NDM, read-out: MIC) greater than 32 µg/mL and an MIC (E. coli S 330; S330, with compound of Formula (I) at 8 mcg/ml, read-out: MIC (mcg/ml) of cefepime in presence of a compound of Formula (I) (8 mcg/ml)) of no more than 0.015 µg/mL. It also gave an MIC (P. aeruginosa S 504; S504, agent alone, enzymes VIM-6, read-out: MIC) greater than 32 µg/mL, an MIC (P. aeruginosa S 504; S504, with compound of Formula (I) at 8 mcg/ml, read-out: MIC (mcg/ml) of cefepime in presence of a compound of Formula (I) (8 mcg/ml)) of no more than 0.06 µg/mL and an MIC (E. coli S 35; S35, agent alone, enzymes TEM, NDM-1, read-out: MIC) greater than 32 µg/mL. It also gave an MIC (E. coli S 35; S35, with compound of Formula (I) at 8 mcg/ml, read-out: MIC (mcg/ml) of cefepime in presence of a compound of Formula (I) (8 mcg/ml)) of no more than 0.015 µg/mL, an MIC (E. coli S 16; S16, agent alone, enzymes CMY type, TEM, DHA, read-out: MIC) greater than 32 µg/mL and an MIC (E. coli S 16; S16, with compound of Formula (I) at 8 mcg/ml, read-out: MIC (mcg/ml) of cefepime in presence of a compound of Formula (I) (8 mcg/ml)) of no more than 0.015 µg/mL. For the same molecule, the MIC (P. aeruginosa Q-111; Q111, agent alone, enzymes OXA-4, OXA-11, read-out: MIC) was greater than 32 µg/mL, the MIC (P. aeruginosa Q-111; Q111, with compound of Formula (I) at 8 mcg/ml, read-out: MIC (mcg/ml) of cefepime in presence of a compound of Formula (I) (8 mcg/ml)) was no more than 0.06 µg/mL and the MIC (K. pneumoniae B 77; B77, agent alone, enzymes SHV, TEM, NDM-1, read-out: MIC) was greater than 32 µg/mL. For the same molecule, the MIC (K. pneumoniae B 77; B77, with compound of Formula (I) at 8 mcg/ml, read-out: MIC (mcg/ml) of cefepime in presence of a compound of Formula (I) (8 mcg/ml)) was no more than 0.25 µg/mL, the MIC (E. coli S 30; S30, agent alone, enzymes CMY type, TEM, NDM-1, read-out: MIC) was greater than 32 µg/mL and the MIC (E. coli S 30; S30, with compound of Formula (I) at 8 mcg/ml, read-out: MIC (mcg/ml) of cefepime in presence of a compound of Formula (I) (8 mcg/ml)) was no more than 0.015 µg/mL. For the same molecule, the MIC (E. coli S 33; S33, agent alone, enzymes TEM, NDM-1, read-out: MIC) was greater than 32 µg/mL, the MIC (E. coli S 33; S33, with compound of Formula (I) at 8 mcg/ml, read-out: MIC (mcg/ml) of cefepime in presence of a compound of Formula (I) (8 mcg/ml)) was no more than 0.015 µg/mL and the MIC (K. pneumoniae S 50; S50, agent alone, enzymes SHV, TEM, NDM-1, read-out: MIC) was greater than 32 µg/mL. It also gave an MIC (K. pneumoniae S 50; S50, with compound of Formula (I) at 8 mcg/ml, read-out: MIC (mcg/ml) of cefepime in presence of a compound of Formula (I) (8 mcg/ml)) of no more than 0.015 µg/mL, an MIC (K. pneumoniae M 3; M3, agent alone, enzymes SHV, CTXM, TEM, NDM-1, read-out: MIC) greater than 32 µg/mL and an MIC (K. pneumoniae M 3; M3, with compound of Formula (I) at 8 mcg/ml, read-out: MIC (mcg/ml) of cefepime in presence of a compound of Formula (I) (8 mcg/ml)) of no more than 0.015 µg/mL. The MIC (K. pneumoniae NCTC 13439; NCTC13439, agent alone, enzymes VIM-1, read-out: MIC) was greater than 32 µg/mL, the MIC (K. pneumoniae NCTC 13439; NCTC13439, with compound of Formula (I) at 8 mcg/ml, read-out: MIC (mcg/ml) of cefepime in presence of a compound of Formula (I) (8 mcg/ml)) was 1 µg/mL and the MIC (E. coli M 44; M44, agent alone, enzymes TEM, NDM-1, read-out: MIC) was greater than 32 µg/mL. It also gave an MIC (E. coli M 44; M44, with compound of Formula (I) at 8 mcg/ml, read-out: MIC (mcg/ml) of cefepime in presence of a compound of Formula (I) (8 mcg/ml)) of no more than 0.015 µg/mL, an MIC (K. pneumoniae B 88; B88, agent alone, enzymes SHV, TEM, NDM-1, read-out: MIC) greater than 32 µg/mL and an MIC (K. pneumoniae B 88; B88, with compound of Formula (I) at 8 mcg/ml, read-out: MIC (mcg/ml) of cefepime in presence of a compound of Formula (I) (8 mcg/ml)) of no more than 0.015 µg/mL. For the same molecule, the MIC (P. aeruginosa S 508; S508, agent alone, enzymes VIM-11, read-out: MIC) was greater than 32 µg/mL, the MIC (P. aeruginosa S 508; S508, with compound of Formula (I) at 8 mcg/ml, read-out: MIC (mcg/ml) of cefepime in presence of a compound of Formula (I) (8 mcg/ml)) was no more than 0.06 µg/mL and the MIC ([1]; H113720186, agent alone, enzymes IMP, read-out: MIC) was greater than 32 µg/mL. For the same molecule, the MIC ([1]; H113720186, with compound of Formula (I) at 8 mcg/ml, read-out: MIC (mcg/ml) of cefepime in presence of a compound of Formula (I) (8 mcg/ml)) was no more than 0.5 µg/mL, the Bacterial count ([2]; 2 hours) was 6.17 Log CFU/ml and the Bacterial count ([2]; 4 hours) was 7.11 Log CFU/ml. For the same molecule, the Bacterial count ([2]; 6 hours) was 8.69 Log CFU/ml, the “Change in bacterial count (in words)” value [2, 5] was “no decrease in bacterial count was observed” and the Bacterial count ([3]; 2 hours) was 6.9 Log CFU/ml. The Bacterial count ([3]; 4 hours) was 8.23 Log CFU/ml, the Bacterial count ([3]; 6 hours) was 8.23 Log CFU/ml and the “Change in bacterial count (in words)” value [3, 5] was “no decrease in bacterial count was observed”. For the same molecule, the “MICs (range over the strains)” value ([4]; agent alone, resistant strains of E. coli, K. pneumonia and P. aeruginosa) was 16 to 64 µg/mL and the “MIC values of cefepime in presence of the compound of Formula (I) (range over the strains)” value ([4]; with compound of Formula (I) at 8 mcg/ml) was 0.015 to 1 µg/mL.
